The values that follow come from article PMC10534693, “A High-Performance Liquid Chromatography with Photodiode Array Detection Method for Simultaneous Determination of Three Compounds Isolated from Wikstroemia ganpi: Assessment of the Effects on Cytochrome P450-Mediated Metabolism In Vitro and In Vivo” (Nutrients, 2023).

Read-outs that look alike come from different tables or passages of the source.

Series [1] has as its system CYP3A. Put plainly: Inhibition of CYP3A-mediated metabolism (disappearance) of buspirone in rat liver S9 fraction. Particulars: 1 μM BUS; for IC50 at 30 min: probe buspirone (BUS), rat liver S9 fraction 1 mg/mL, n = 5. It counts as in vitro ADME. On the procedure: CYP isoforms-specific probe substrates were BUS for CYP3A, DIC for CYP2C, and DEX for CYP2D [34, 35, 37]. Dose–response curves assessed metabolic inhibition of BUS in the presence of 1 μM BUS and 10 different concentrations (0, 0.1, 0.5, 1, 2, 5, 10, 20, 50, and 100 μM) of 7-methoxyluteolin-5-O-glucoside, pilloin 5-O-β-D-glucopyranoside or rutarensin. The mixture without substrate and inhibitor was incubated for 5 min at 37 °C, after which the substrate and inhibitor were added to initiate the enzyme reaction. After incubating BUS (reaction time: 30 min), DIC and DEX (reaction time: 60 min) at 37 °C at a speed of 500 oscillations/min, a sample was obtained from the reaction mixture and mixed with cold acetonitrile containing an internal standard (IS) to terminate the reaction. After sample preparation, the samples were analyzed using the ultra-performance liquid chromatography–tandem mass spectrometry (UPLC-MS/MS) method (see the sections entitled ‘Biological Sample Preparation’ and ‘UPLC-MS/MS Conditions’ in the Supplementary Materials).
(§1) The average plasma pharmacokinetic parameters, including the area under the curve from time 0 extrapolated to infinity (AUCinf) and the terminal half-life (t1/2), were determined using a non-compartment model (WinNonlin Ver. 3.1; Certara, Inc., Princeton, NJ, USA). The peak time (Tmax) and maximal concentration (Cmax) were obtained directly from the observed plasma concentration-time profiles. A t-test was used to compare two unpaired means, and a p-value of below 0.05 was considered statistically significant.

Series [2] can be described thus: Stability of marker components in WGM sample and reference stock solutions (HPLC-PDA peak area). It counts as physicochemical. Particulars: for Peak Area (%) 6 h / Peak Area (%) 24 h / Peak Area (%) 48 h / Peak Area (%) 72 h: vs 0 h, n = 5; for Decrease of peak area / Increase of peak area: Reference solution. The source says: The developed HPLC-PDA simultaneous analysis conditions were validated according to ICH Q2(R1) guidelines. The validation characteristics included specificity, linearity, detection limit, quantitation limit, precision, recovery, and stability. Specificity is defined as the ability to clearly identify an analyte in a sample containing a mixture of impurities. This was verified by comparing and overlaying the chromatograms and PDA spectra obtained from the WGM samples and the reference mixture to confirm that the retention time (tR), spectral pattern, and maximum absorption wavelength (λmax) of the three reference compounds were consistent. Linearity is a test used to derive calibration curves by obtaining measurements that are directly proportional to the concentration of the substance being examined within a certain range. The stock solutions of 7-methoxyluteolin-5-O-glucoside (1), pilloin 5-O-β-D-glucopyranoside (2), and rutarensin (3) were diluted to six target concentrations (5.0, 50.0, 250.0, 400.0, 500.0, and 600.0 μg/mL) in DMSO/MeOH (50:50, v/v) mixtures, and six replicates (n = 6) were performed for each working solution. The calibration curve was expressed using a linear equation (y = ax + b) through linear regression analysis as a function of the area (y) vs. the concentration (x) of each reference peak, and the slope (a), y-intercept (b), and correlation coefficient (r^2) were calculated. The correlation coefficients for the acceptance criteria exceeded 0.999. The detection limit (DL) and quantitation limit (QL) are the minimum detection and quantitation limits of the analyte in the sample, respectively, that can be reliably quantified. These values were measured using the standard deviation (SD) of the y-intercept (σ) and the slope of the calibration curve (S) derived based on the linearity evaluation and were calculated as follows: DL = 3.3 σ/S and QL = 10 σ/S. Precision is an analytical procedure used to evaluate repeatability and reproducibility. The repeatability of the experiment was assessed by measuring the intra- and inter-day precision. Three reference compounds were repeated five times (n = 5) at low, medium and high concentration levels (10.0, 100.0, and 300.0 µg/mL). Intra-day precision was injected on the same day, while inter-day precision was injected on days 1, 3, and 5. The results were determined using the relative standard deviation (RSD) of the peak area. The %RSD was calculated as follows: RSD (%) = (standard deviation/mean measured amount) × 100. %RSD value of <2% means that the developed HPLC-PDA method is precise and reproducible enough for simultaneous analysis and evaluation of the three compounds. […] The analysis was repeated three times (n = 3), and the measured values were calculated as follows: % recovery = (found concentration-original concentration)/spiked concentration × 100. Stability was used to evaluate the degree of change in the solution concentration with storage conditions and time. […] The stability results were evaluated as the %peak area change and %RSD between the mean peak area of the control group (0 h) and that of the experimental group (6, 24, 48, and 72 h).

The nature of series [3]: In vivo pharmacokinetic study of BUS with or without WGM in rats. Particulars: rat, plasma, po, 30 mg/kg; for AUC(0-inf) / Cmax / half-life: mean ± SD, n = 6. On the procedure:
The blood was immediately centrifuged at 3000× g for 10 min at 4 °C to obtain the plasma, which was pretreated and analyzed using the UPLC-MS/MS method.
as §1

Where [4] appears, read: Reference solution (DMSO/MeOH 50:50), 4 °C.
[5] abbreviates: Reference solution (DMSO/MeOH 50:50), R.T.
Setting [6] is: BUS 30 mg/kg oral co-administered with 1 g/kg WGM.

For the compound `COc1cc2cc(Oc3ccc4ccc(=O)oc4c3)c(=O)oc2cc1O[C@@H]1O[C@H](COC(=O)CC(C)(O)CC(=O)O)[C@@H](O)[C@H](O)[C@H]1O` (some centres unmarked) [Compound 3, rutarensin], in series [1] (rat liver S9 fraction, 0-100 μM marker compound), the “Inhibition of BUS metabolism (dose-response)” value was “did not inhibit”. In series [2] (setting [4]), the “Peak Area (%) 6 h” value was 98.02%, the “Peak Area (%) 24 h” value came out at 99.40%, the “Peak Area (%) 48 h” value was 98.78% and the “Peak Area (%) 72 h” value stood at 101.22%. Moreover, in series [2] (setting [5]), the “Peak Area (%) 6 h” value was 96.77%, the “Peak Area (%) 24 h” value is given as 98.82%, the “Peak Area (%) 48 h” value turned out to be 98.54% and the “Peak Area (%) 72 h” value was determined as 98.72%. In series [2] (room temperature, after 6 h), the “Decrease of peak area” value was determined as 3.23%. In addition, in series [2] (WGM solution, 4 °C), the “Peak Area (%) 6 h” value is on record as 100.19%, the “Peak Area (%) 24 h” value is 99.30%, the “Peak Area (%) 48 h” value stood at 98.91% and the “Peak Area (%) 72 h” value is listed as 102.15%. Further, in series [2] (WGM solution, R.T.), the “Peak Area (%) 6 h” value was determined as 101.30%, the “Peak Area (%) 24 h” value was found to be 101.14%, the “Peak Area (%) 48 h” value amounted to 98.98% and the “Peak Area (%) 72 h” value is given as 103.56%.
In general, Tmax refers to the time at which the peak concentration occurs. By AUC(0-inf) is commonly meant the area under the concentration-time curve extrapolated to infinity. By Cmax is commonly meant the highest concentration seen after dosing. Broadly, the half-life is the time in which the quantity being followed falls by half. With `O=C1CC2(CCCC2)CC(=O)N1CCCCN1CCN(c2ncccn2)CC1` [BUS, Buspirone], the Tmax was 5 to 15 min in series [3] (30 mg/kg oral, with or without WGM, read-out: Tmax of BUS); 5 min in series [3] (BUS 30 mg/kg oral co-administered with 1 g/kg WGM, n = 6, read-out: Tmax (converted)); 10 min in series [3] (BUS alone, 30 mg/kg oral, n = 6, read-out: Tmax (converted)). Moreover, the AUC(0-inf) in series [3] (setting [6]) is 1980 ng·h/mL; in series [3] (BUS alone, 30 mg/kg oral) it was 1640 ng·h/mL. Also, the Cmax was 2020 ± 619 ng/mL in series [3] (setting [6]) and 1630 ± 762 ng/mL in series [3] (BUS alone, 30 mg/kg oral). In addition, the half-life was 103 ± 27 min in series [3] (setting [6]) and 111 ± 23 min in series [3] (BUS alone, 30 mg/kg oral).
By IC50 is commonly meant the concentration at which inhibition is half-maximal. `COc1cc(O[C@@H]2O[C@H](CO)[C@@H](O)[C@H](O)[C@H]2O)c2c(=O)cc(-c3ccc(OC)c(O)c3)oc2c1` [Compound 2, pilloin 5-O-β-D-glucopyranoside]: the half-inhibitory concentration (IC50) at 30 min in series [1] is 18.7 µM. In addition, the “Peak Area (%) 6 h” value in series [2] (setting [4]) is recorded as 99.29%; in series [2] (setting [5]), 101.71%; in series [2] (WGM solution, 4 °C), 100.32%; in series [2] (WGM solution, R.T.), 101.41%. Moreover, the “Peak Area (%) 24 h” value in series [2] (setting [4]) was 102.15%; in series [2] (setting [5]), 103.18%; in series [2] (WGM solution, 4 °C), 99.18%; in series [2] (WGM solution, R.T.) it was 101.08%. In addition, the “Peak Area (%) 48 h” value came out at 104.42% in series [2] (setting [4]); 107.58% in series [2] (setting [5]); 98.86% in series [2] (WGM solution, 4 °C); 98.97% in series [2] (WGM solution, R.T.). Moreover, the “Peak Area (%) 72 h” value in series [2] (setting [4]) turned out to be 101.79%; in series [2] (setting [5]) it was 103.48%; in series [2] (WGM solution, 4 °C), 102.02%; in series [2] (WGM solution, R.T.), 103.35%. The “Increase of peak area” value is recorded as 4.42% in series [2] (4 °C, after 48 h); 7.58% in series [2] (R.T., after 48 h); 1.71% in series [2] (room temperature, after 6 h).
Take `COc1cc(O[C@@H]2O[C@H](CO)[C@@H](O)[C@H](O)[C@H]2O)c2c(=O)cc(-c3ccc(O)c(O)c3)oc2c1` [Compound 1, 7-methoxyluteolin-5-O-glucoside]: in series [1], inhibition was half-maximal at 2.73 µM (IC50 at 30 min). The “Peak Area (%) 6 h” value in series [2] (setting [4]) is on record as 99.15%; in series [2] (setting [5]), 99.46%; in series [2] (WGM solution, 4 °C) it was 100.10%; in series [2] (WGM solution, R.T.), 100.80%. Besides, the “Peak Area (%) 24 h” value turned out to be 96.60% in series [2] (setting [4]); 98.56% in series [2] (setting [5]); 98.87% in series [2] (WGM solution, 4 °C); 100.10% in series [2] (WGM solution, R.T.). Also, the “Peak Area (%) 48 h” value in series [2] (setting [4]) came to 96.58%; in series [2] (setting [5]), 100.34%; in series [2] (WGM solution, 4 °C) it was 98.63%; in series [2] (WGM solution, R.T.), 97.43%. For the same compound, the “Peak Area (%) 72 h” value was 97.39% in series [2] (setting [4]); 99.03% in series [2] (setting [5]); 101.60% in series [2] (WGM solution, 4 °C); 100.99% in series [2] (WGM solution, R.T.). The “Decrease of peak area” value in series [2] (room temperature, after 6 h) is 0.54%.
